Results as given in ChEMBL document CHEMBL1201862, “PubChem BioAssay data set” (2004).
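Compound exposure: 48 hours, 5 concentrations, 96-well plates. GI50 = concentration required for 50% inhibition of growth.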 Active and inactive are the calls of the source. Cut-off read from the data, not from the text of the source: active = GI50 up to about 1.1 µM and inactive = higher.

Legend:
Assay in all cases: growth of human tumour cells (NCI), 48 h
[1] = system: TK-10
[2] = system: OVCAR-3
[3] = system: IGROV-1
[4] = system: HOP-92
[5] = system: OVCAR-8
[6] = system: U-251
[7] = system: UACC-257
[8] = system: RPMI-8226
[9] = system: SF-268
[10] = system: SW-620
[11] = system: SF-539
[12] = system: HT-29
[13] = system: NCI-H226
[14] = system: SNB-19
[15] = system: NCI-H23
[16] = system: SF-295
[17] = system: CAKI-1
[18] = system: HOP-62
[19] = system: MCF7
[20] = system: SK-OV-3

SMILES	GI50 [1]	GI50 [2]	GI50 [3]	GI50 [4]	GI50 [5]	GI50 [6]	GI50 [7]	GI50 [8]	GI50 [9]	GI50 [10]	GI50 [11]	GI50 [12]	GI50 [13]	GI50 [14]	GI50 [15]	GI50 [16]	GI50 [17]	GI50 [18]	GI50 [19]	GI50 [20]
CC(=O)O[C@H]1[C@@H](N2CCOCC2)C[C@H]2[C@@H]3CC=C4C[C@@H](N5CCCC5)CC[C@]4(C)[C@H]3CC[C@@]21C	> 100 µM (inactive)	> 100 µM (inactive)	> 100 µM (inactive)	85.9 µM (inactive)	> 100 µM (inactive)	> 100 µM (inactive)	> 100 µM (inactive)	> 100 µM (inactive)	> 100 µM (inactive)	> 100 µM (inactive)	73.8 µM (inactive)	5.21 µM (inactive)	> 100 µM (inactive)	> 100 µM (inactive)	> 100 µM (inactive)	> 100 µM (inactive)	> 100 µM (inactive)	> 100 µM (inactive)	> 100 µM (inactive)	> 100 µM (inactive)
COc1ccccc1C(=O)Nc1ccc(Cl)c(C(=O)OC(C)C)c1	> 80 µM (inactive)	> 46.1 µM (inactive)	> 66.8 µM (inactive)	42.3 µM (inactive)	> 63 µM (inactive)	43 µM (inactive)	30.5 µM (inactive)	18.3 µM (inactive)	> 50.6 µM (inactive)	> 61.1 µM (inactive)	> 67.3 µM (inactive)	27.4 µM (inactive)	47.4 µM (inactive)	> 65.3 µM (inactive)	13.5 µM (inactive)	36.6 µM (inactive)	> 67 µM (inactive)	48 µM (inactive)	42 µM (inactive)	99.5 µM (inactive)
COc1cccc(-c2cc(=O)c3cc(N4CCCCC4)ccc3[nH]2)c1	79.3 µM (inactive)	< 0.01 µM (active)	0.0397 µM (active)	13.1 µM (inactive)	0.026 µM (active)	< 0.0147 µM (active)	> 100 µM (inactive)	< 0.01 µM (active)	0.16 µM (active)	< 0.0145 µM (active)	< 0.01 µM (active)	< 0.0129 µM (active)	0.0127 µM (active)	< 0.0117 µM (active)	0.0204 µM (active)	0.0119 µM (active)	< 0.01 µM (active)	< 0.0145 µM (active)	< 0.01 µM (active)	0.0316 µM (active)
CSC(=S)N/N=C(\C)c1ccc(S(=O)(=O)N(C)c2ccccc2)cc1	> 100 µM (inactive)	16.7 µM (inactive)	3.5 µM (inactive)	23.8 µM (inactive)	31.6 µM (inactive)	24.7 µM (inactive)	33.7 µM (inactive)	27.8 µM (inactive)	9.44 µM (inactive)	41.9 µM (inactive)	48.3 µM (inactive)	26.1 µM (inactive)	20.1 µM (inactive)	26.4 µM (inactive)	19.1 µM (inactive)	12.8 µM (inactive)	50.5 µM (inactive)	56.5 µM (inactive)	18.2 µM (inactive)	59.2 µM (inactive)
CC(C)(C)OC(=O)NCC(=O)N(CCc1ccc(Cl)c(Cl)c1)CCN1CCCC1	17.1 µM (inactive)	16.7 µM (inactive)	15.8 µM (inactive)	3.78 µM (inactive)	18 µM (inactive)	15.2 µM (inactive)	15.7 µM (inactive)	5.01 µM (inactive)	15.3 µM (inactive)	16.6 µM (inactive)	16.8 µM (inactive)	6.32 µM (inactive)	15 µM (inactive)	17.8 µM (inactive)	17.1 µM (inactive)	17.3 µM (inactive)	18.4 µM (inactive)	13.5 µM (inactive)	16.4 µM (inactive)	14.9 µM (inactive)
